What was measured:
[1] = Texture analysis of PCL-PVAc-PEG/Vitamin E composites (hardness, adhesiveness, cohesiveness); type: physicochemical; conditions: probe compression 2 mm/s to 4 mm depth, 20±1° C.
Procedure: Texture Analysis. Texture analysis is a technique that has been widely utilized for the mechanical characterization of food and pharmaceutical products. The mechanical characteristics of the PCL-PVAc-PEG/Vitamin E composites were determined by using a TA-XT plus texture analyzer (Texture Technologies Corp and Stable Micro Systems, Ltd, Scarsdale, N.Y., USA) equipped with a 50 kg load cell and fitted with a 35 mm flat-faced stainless-steel cylindrical probe. Briefly, 10 g sample of each composite was placed in a 25 mL jacketed reaction beaker. Before analysis, air bubbles were removed from the samples by maintaining the reaction beaker at 80° C. for approximately 30 minutes. Samples were then allowed to equilibrate to room temperature for 24 h. After equilibration, samples were tested for their texture properties by compressing the probe into the surface of each sample at a rate of 2 mm/s to a depth of 4 mm, after which the probe was retracted at a rate of 2 mm/s. Composite Hardness, adhesiveness, and cohesiveness were then estimated from the generated force-time plots. At least three replicate analyses were carried out for each composite using a freshly prepared sample. Data collection and calculation were determined by the Texture Exponent 6.1.7.0 software package.
Texture Analysis. Texture profile analysis (TPA) of the PCL-PVAc-PEG/Vitamin E composites was carried out to study their compressional flow properties. It provided valuable information about the impact of PCL-PVAc-PEG load on the hardness, adhesiveness, and cohesiveness of the composites (FIG. 9). These characteristics quantify sample deformation under compression. Hardness describes the stress/work required to remove the sample from the container and to subsequently apply it to the site of application. It is defined as the force required to acquire a given deformation which is the same as the maximum peak force during compression. Hardness should be low in order to allow the material to be easily removed from the container. […]

[2] = 24° C.; cited from earlier work
[3] = Flow rheometry test of PCL-PVAc-PEG/Vitamin E composites; type: physicochemical; conditions: flow mode, 20±1° C., shear stress 0.60 to 59.68 Pa
Procedure: Rheological Characterization. […] The viscoelastic properties of the composites were evaluated by measuring their shear rate under an applied shear stress. The viscous response, or the loss modulus, is the loss of the rigid structure of the system as a result of the applied stress over strain (G″). The recovery of the polymeric dispersions when lifting the applied stress is known as the elastic (G′) or storage modulus. Tangent of the phase angle (tan δ) is the ratio of the viscous property of the dispersion (G″) to its elastic property (G′). Tan δ is a measure of the relative contribution of the viscous component to the solid characteristics of the material. Materials behave increasingly like a liquid as the tan δ value increases above 1, whereas they behave increasingly like a gel as the tan δ value decreases below 1 [13].
The characterization of the rheological properties of vitamin E and PCL-PVAc-PEG/Vitamin E composites was carried out with an Advanced AR 2000 controlled stress/controlled rate rheometer (TA Instruments, New Castle, Del., USA) with a 2o, 40 mm cone-plate geometry and a 61 μm gap between the plates. Approximately 0.6 mL of each sample was carefully placed on the lower plate. […]
Flow Rheometry Test. The flow behavior and complex viscosity (η) of the PCL-PVAc-PEG/Vitamin E composites were measured in flow mode at 20±1° C. under an applied shear stress from 0.60 to 59.68 Pa. […]

Adhesiveness [1]: 0.01 kg·s
Cohesiveness [1]: 0.02 kg·s
Hardness [1]: 0.021 kg
Viscosity [3]: 5.9 Pa·s
SMILES: Cc1c(C)c2c(c(C)c1O)CCC(C)(CCCC(C)CCCC(C)CCCC(C)C)O2 (racemic) [pure vitamin E, DL-α-Tocopherol]
reported viscosity [2]: 2480 centipoise

From patent US20200354562A1, “FILMS AND COMPOSITES AND METHODS OF PRODUCTION AND USE” (Texas Tech University System, priority 2018, published 2020)
